In patent publication US10253002B2, “Compounds and methods of treating infections” (Neoculi Pty Ltd., priority 2013, dated 2019):
≈ marks a conversion by molar mass, not a printed value. Where “and” joins values, the source holds several entries; their conditions need not be identical. Identical values can stand only once. Like-named read-outs stand apart in the source and are kept apart here.

How the values were obtained:
MRSA = experiment: Broth microdilution MIC, Example 7 (NCL812 and analogues); type: cell-based, Staphylococcus aureus; settings: for activity against MRSA among analogues: MIC testing, two MRSA strains; for MIC: Staphylococcus aureus; for MRSA / MIC: MRSA
Summary of the method: (§1)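 Turbidity read visually and then at 600 nm defined the MIC (μg/ml), comparing drug-containing wells with a growth-control well lacking antimicrobial. Testing followed the CLSI broth microdilution method, in duplicate, using two strains per organism group.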

VRE = experiment: as above; type: cell-based, Enterococcus spp.; settings: for activity against VRE among analogues: MIC testing, two VRE strains; for MIC: Enterococcus; for VRE / MIC: VRE
Summary of the method: as §1

Escherichia coli = experiment: as above; type: cell-based; settings: E. coli, 24 hours; for MIC: Escherichia coli
Pseudomonas aeruginosa = experiment: as above; type: cell-based; settings: for MIC: Pseudomonas aeruginosa, 24 h
[1] = Bioassay ranking of the analogues tested; settings: M + R (MRSA and VRE combined)
[2] = MRSA 1, 24 hours, duplicate lines per compound
[3] = MRSA 2, 24 hours, duplicate lines per compound
[4] = VRE 1, 24 hours, duplicate lines per compound
[5] = VRE 2, 24 hours, duplicate lines per compound
[6] = 24 hours, duplicate lines per compound
[7] = 24 h, read-out: MIC (μg/ml) at 24 hours, MRSA 1, MRSA 1, 24 hours, duplicate lines per compound
[8] = 24 h, read-out: MIC (μg/ml) at 24 hours, MRSA 2, MRSA 2, 24 hours, duplicate lines per compound
[9] = bioassay ranking, read-out: MRSA
[10] = 24 h, read-out: MIC (μg/ml) at 24 hours, VRE 1, VRE 1, 24 hours, duplicate lines per compound
[11] = 24 h, read-out: MIC (μg/ml) at 24 hours, VRE 2, VRE 2, 24 hours, duplicate lines per compound
[12] = bioassay ranking, read-out: VRE
[13] = read-out: MIC (μg/ml) at 24 hours, duplicate lines per compound
[14] = read-out: MIC (μg/ml) at 24 hours, P. aeruginosa, 24 hours, duplicate lines per compound
[15] = 24 h, read-out: MIC (μg/ml) at 24 hours MRSA 1, MRSA 1, 24 hours
[16] = 24 h, read-out: MIC (μg/ml) at 24 hours MRSA 2, MRSA 2, 24 hours
[17] = 24 h, read-out: MIC (μg/ml) at 24 hours VRE 1, VRE 1, 24 hours
[18] = 24 h, read-out: MIC (μg/ml) at 24 hours VRE 2, VRE 2, 24 hours
[19] = read-out: MIC (μg/ml) at 24 hours E. coli
[20] = read-out: MIC (μg/ml) at 24 hours P. aeruginosa, P. aeruginosa, 24 hours

MIC (μg/ml) at 24 hours, MRSA 1 (MRSA; [2])	MIC (μg/ml) at 24 hours, MRSA 2 (MRSA; [3]) [µg/mL]	MIC (μg/ml) at 24 hours, VRE 2 (VRE; [5])	MIC (MRSA; [9]) [µg/mL]	MIC (VRE; [12]) [µg/mL]	MIC (μg/ml) at 24 hours, MRSA 2 (MRSA; MRSA 2, 24 hours) [µg/mL]	MIC (μg/ml) at 24 hours, VRE 2 (VRE; VRE 2, 24 hours)	MIC (μg/ml) at 24 hours, MRSA 1 (MRSA; MRSA 1, 24 hours)	MIC (μg/ml) at 24 hours, VRE 1 (VRE; VRE 1, 24 hours)	MIC (μg/ml) at 24 hours, E. coli (Escherichia coli) [µg/mL]	MIC (μg/ml) at 24 hours, P. aeruginosa (Pseudomonas aeruginosa; 24 hours) [µg/mL]	SMILES	activity against MRSA among analogues (MRSA)	MRSA (MRSA; bioassay ranking) [µg/mL]	activity against VRE among analogues (VRE)	VRE (VRE; bioassay ranking) [µg/mL]	M + R [1] [µg/mL]	also measured
8 µg/mL and 4 µg/mL	8	2 µg/mL and 4 µg/mL	–	–	–	–	–	–	–	–	Cl.N=C(N/N=C/c1ccc(Cl)cc1)N/N=C/c1ccccc1Cl [NCL082]	greatest activity	7	greatest activity	3.5	5.25	MIC (μg/ml) at 24 hours, VRE 1 (VRE; [4]): 4 µg/mL; MIC (μg/ml) at 24 hours, E. coli (Escherichia coli; duplicate lines per compound): >128 µg/mL; MIC (μg/ml) at 24 hours, P. aeruginosa (Pseudomonas aeruginosa; [6]): >128 µg/mL
–	4	–	4	2	–	–	–	–	–	–	Cl.N=C(N/N=C/c1ccc(Cl)cc1)N/N=C/c1ccc(Cl)cc1F [NCL084]	greatest activity	–	greatest activity	–	3	MIC (MRSA; [7]): 2 µg/mL; MIC (MRSA; [8]): 8 µg/mL; MIC (VRE; [10]): 2 µg/mL; MIC (VRE; [11]): 2 µg/mL; MIC (Escherichia coli; [13]): > 128 µg/mL; MIC (Pseudomonas aeruginosa; [14]): > 128 µg/mL
16 µg/mL and 8 µg/mL	8	4 µg/mL	–	–	–	–	–	–	–	–	Cl.N=C(NN=Cc1ccc(Cl)cc1)NN=Cc1ccccc1F [NCL088]	greatest activity	10	greatest activity	4	7	MIC (μg/ml) at 24 hours, VRE 1 (VRE; [4]): 4 µg/mL; MIC (μg/ml) at 24 hours, E. coli (Escherichia coli; duplicate lines per compound): >128 µg/mL; MIC (μg/ml) at 24 hours, P. aeruginosa (Pseudomonas aeruginosa; [6]): >128 µg/mL
8 µg/mL	–	1 µg/mL	5	0.75	–	–	–	–	–	–	C/C(=N\NC(=N)N/N=C(\C)c1ccc(C(F)(F)F)cc1)c1ccc(Cl)cc1.Cl [NCL089]	greatest activity	–	–	–	2.875	MIC (MRSA; [7]): 4 µg/mL; MIC (MRSA; [8]): 4 µg/mL; MIC (VRE; [10]): 0.5 µg/mL; MIC (VRE; [11]): 1 µg/mL; MIC (Escherichia coli; [13]): > 128 µg/mL; MIC (Pseudomonas aeruginosa; [14]): > 128 µg/mL
8 µg/mL	16	128 µg/mL	–	–	–	–	–	–	–	–	Cl.N=C(N/N=C/c1ccccc1O)N/N=C/c1ccccc1O [NCL107]	greatest activity	12	greatest activity	–	46	MIC (μg/ml) at 24 hours, VRE 1 (VRE; [4]): 32 µg/mL; MIC (μg/ml) at 24 hours, E. coli (Escherichia coli; duplicate lines per compound): >128 µg/mL; MIC (μg/ml) at 24 hours, P. aeruginosa (Pseudomonas aeruginosa; [6]): >128 µg/mL
16 µg/mL	8	16 µg/mL	–	–	–	–	–	–	–	–	CN(C)c1ccc(C=NNC(=N)NN=Cc2ccc(N(C)C)cc2)cc1.Cl [NCL113]	greatest activity	12	greatest activity	12	12	MIC (μg/ml) at 24 hours, VRE 1 (VRE; [4]): 8 µg/mL; MIC (μg/ml) at 24 hours, E. coli (Escherichia coli; duplicate lines per compound): >128 µg/mL; MIC (μg/ml) at 24 hours, P. aeruginosa (Pseudomonas aeruginosa; [6]): >128 µg/mL
–	–	–	2.5 (≈ 5.11 µM)	5 (≈ 10.2 µM)	4 (≈ 8.18 µM)	8 µg/mL (≈ 16.4 µM)	–	–	–	–	Nc1nc(N/N=C/c2ccc(Br)cc2)cc(N/N=C/c2ccc(Br)cc2)n1 [NCL193]	greatest activity	–	greatest activity	–	3.75	MIC (MRSA; [15]): 2 µg/mL (≈ 4.09 µM); MIC (MRSA; [16]): 2 µg/mL (≈ 4.09 µM); MIC (VRE; [17]): 4 µg/mL (≈ 8.18 µM); MIC (VRE; [18]): 4 µg/mL (≈ 8.18 µM); MIC (Escherichia coli; [19]): > 128 µg/mL; MIC (Pseudomonas aeruginosa; [20]): > 128 µg/mL
–	–	–	2 (≈ 5.56 µM)	3.5 (≈ 9.74 µM)	2 (≈ 5.56 µM)	4 µg/mL (≈ 11.1 µM)	2 µg/mL (≈ 5.56 µM)	–	–	–	Cc1ccc(/C=N/Nc2cc(N/N=C/c3ccc(C)cc3)nc(N)n2)cc1 [NCL195, 4,6-bis(2-((E)-4-methylbenzylidene)hydrazinyl)pyrimidin-2-amine]	greatest activity	–	greatest activity	–	2.75	MIC (MRSA; [15]): 2 µg/mL (≈ 5.56 µM); MIC (MRSA; [16]): 2 µg/mL (≈ 5.56 µM); MIC (VRE; [17]): 4 µg/mL (≈ 11.1 µM); MIC (VRE; [18]): 2 µg/mL (≈ 5.56 µM); MIC (Escherichia coli; [19]): > 128 µg/mL; MIC (Pseudomonas aeruginosa; [20]): > 128 µg/mL
–	–	–	–	–	8 (≈ 22 µM)	8 µg/mL (≈ 22 µM)	8 µg/mL (≈ 22 µM)	8 µg/mL and 4 µg/mL	>128	>128	Nc1nc(N/N=C/c2cccc(O)c2)cc(N/N=C/c2cccc(O)c2)n1 [NCL197]	greatest activity	8	greatest activity	7	7.5	–
–	–	–	–	–	8 (≈ 22 µM)	8 µg/mL (≈ 22 µM)	8 µg/mL (≈ 22 µM)	8 µg/mL (≈ 22 µM)	>128	>128	Nc1nc(N/N=C/c2ccccc2O)cc(N/N=C/c2ccccc2O)n1 [NCL202]	greatest activity	10	greatest activity	8	9	–
–	–	–	–	–	64	32 µg/mL	32 µg/mL	32 µg/mL and 64 µg/mL	>128	>128	Cl.Cl.Nc1nc(N/N=C/C2CCCCC2)cc(N/N=C/C2CCCCC2)n1 [NCL203]	greatest activity	–	greatest activity	–	44	–
–	–	–	–	–	8	4 µg/mL and 8 µg/mL	8 µg/mL and 16 µg/mL	2 µg/mL and 4 µg/mL	>128	>128	CC(=NNC(=N)NN=C(C)c1ccc(Cl)cc1F)c1ccc(Cl)cc1F.Cl [NCL215]	greatest activity	10	greatest activity	4.5	7.25	–
–	–	–	4	3	–	–	–	–	–	–	C/C(=N\NC(=N)N/N=C(\C)c1ccc(C)cc1)c1ccc(C)cc1.Cl [NCL217]	greatest activity	–	greatest activity	–	3.5	MIC (MRSA; [15]): 4 µg/mL; MIC (MRSA; [16]): 4 µg/mL; MIC (VRE; [17]): 2 µg/mL; MIC (VRE; [18]): 4 µg/mL; MIC (Escherichia coli; [19]): > 128 µg/mL; MIC (Pseudomonas aeruginosa; [20]): > 128 µg/mL
–	–	–	2	16	–	–	–	–	–	–	C/C(=N\NC(=N)N/N=C(\C)c1ccc(C(C)(C)C)cc1)c1ccc(C(C)(C)C)cc1.Cl [NCL219]	greatest activity	–	greatest activity	–	9	MIC (MRSA; [15]): 2 µg/mL; MIC (MRSA; [16]): 2 µg/mL; MIC (VRE; [17]): 16 µg/mL; MIC (VRE; [18]): 16 µg/mL; MIC (Escherichia coli; [19]): > 128 µg/mL; MIC (Pseudomonas aeruginosa; [20]): > 128 µg/mL
–	–	–	–	–	16 (≈ 43.6 µM)	32 µg/mL (≈ 87.1 µM)	16 µg/mL (≈ 43.6 µM)	32 µg/mL (≈ 87.1 µM)	>128	>128	Nc1nc(N/N=C/c2ccc(F)cc2)cc(N/N=C/c2ccc(F)cc2)n1 [NCL220]	greatest activity	16	greatest activity	32	24	–

SMILES	MIC (μg/ml) at 24 hours, MRSA 1 (MRSA; [2])	MIC (μg/ml) at 24 hours, MRSA 2 (MRSA; [3]) [µg/mL]	MIC (μg/ml) at 24 hours, VRE 2 (VRE; [5])	MIC (MRSA; [9]) [µg/mL]	MIC (VRE; [12]) [µg/mL]	MIC (μg/ml) at 24 hours, MRSA 2 (MRSA; MRSA 2, 24 hours) [µg/mL]	MIC (μg/ml) at 24 hours, VRE 2 (VRE; VRE 2, 24 hours)	MIC (μg/ml) at 24 hours, MRSA 1 (MRSA; MRSA 1, 24 hours)	MIC (μg/ml) at 24 hours, VRE 1 (VRE; VRE 1, 24 hours)	MIC (μg/ml) at 24 hours, E. coli (Escherichia coli) [µg/mL]	MIC (μg/ml) at 24 hours, P. aeruginosa (Pseudomonas aeruginosa; 24 hours) [µg/mL]	activity against MRSA among analogues (MRSA)	MRSA (MRSA; bioassay ranking) [µg/mL]	activity against VRE among analogues (VRE)	VRE (VRE; bioassay ranking) [µg/mL]	M + R [1] [µg/mL]	also measured
Cl.N=C(N/N=C/c1ccc(Cl)cc1F)N/N=C/c1ccc(Cl)cc1F [NCL216]	–	–	–	–	–	2	4 µg/mL	2 µg/mL and 4 µg/mL	2 µg/mL	>128	>128	greatest activity	2.5	greatest activity	3	2.75	–
